Source: patent publication US6531610B1 (Abbott Laboratories, priority 1989, dated 2003)

test system: HIV-13B in MT4 cells; assay: Antiviral activity: inhibition of the cytopathic effect of HIV in MT4 cells; assay type: cell-based, HIV-1; conditions: Human immunodeficiency virus 1, MT4; read-out: IC50

Row | Structure (SMILES) | IC50
1 | CC(C)c1nc(CN(C)C(=O)N[C@H](C(=O)N[C@@H](Cc2ccccc2)C[C@H](O)[C@H](Cc2ccccc2)NC(=O)OCc2cncs2)C(C)C)cs1 [Example 1, (2S,3S,5S)-5-(N-(N-((N-Methyl-N-((2-isopropyl-4-thiazolyl)methyl)amino)carbonyl)valinyl)amino)-2-(N-((5-thiazolyl)methoxycarbonyl)amino)-1,6-diphenyl-3-hydroxyhexane] | 25 to 40 nM
2 | CCN(Cc1csc(C(C)C)n1)C(=O)N[C@H](C(=O)N[C@@H](Cc1ccccc1)C[C@H](O)[C@H](Cc1ccccc1)NC(=O)OCc1cncs1)C(C)C [Example 4, (2S,3S,5S)-5-(N-(N-((N-Ethyl-N-((2-isopropyl-4-thiazolyl)methyl)amino)carbonyl)valinyl)amino)-2-(N-((5-thiazolyl)methoxycarbonyl)amino)-1,6-diphenyl-3-hydroxyhexane] | 170 to 320 nM
3 | CC(C)c1nc(COC(=O)N[C@H](C(=O)N[C@@H](Cc2ccccc2)C[C@H](O)[C@H](Cc2ccccc2)NC(=O)OCc2cncs2)C(C)C)cs1 [Example 5, (2S,3S,5S)-5-(N-(N-((2-Isopropyl-4-thiazolyl)methoxycarbonyl)valinyl)amino)-2-(N-((5-thiazolyl)methoxycarbonyl)amino)-1,6-diphenyl-3-hydroxyhexane] | 3 to 9 nM
4 | CC(C)c1nc(COC(=O)N[C@H](C(=O)N[C@@H](Cc2ccccc2)[C@@H](O)C[C@H](Cc2ccccc2)NC(=O)OCc2cncs2)C(C)C)cs1 [Example 6, (2S,3S,5S)-2-(N-(N-((2-Isopropyl-4-thiazolyl)methoxycarbonyl)valinyl)amino)-5-(N-((5-thiazolyl)methoxycarbonyl)amino)-1,6-diphenyl-3-hydroxyhexane] | 6 to 14 nM
5 | CC(C)c1nc(COC(=O)N[C@@H](C)C(=O)N[C@@H](Cc2ccccc2)C[C@H](O)[C@H](Cc2ccccc2)NC(=O)OCc2cncs2)cs1 [Example 7, (2S,3S,5S)-5-(N-(N-((2-Isopropyl-4-thiazolyl)methoxycarbonyl)alaninyl)amino)-2-(N-((5-thiazolyl)methoxycarbonyl)amino)-1,6-diphenyl-3-hydroxyhexane] | 76 to 131 nM
6 | CC(C)[C@H](NC(=O)OCc1csc(N(C)C)n1)C(=O)N[C@@H](Cc1ccccc1)[C@@H](O)C[C@H](Cc1ccccc1)NC(=O)OCc1cncs1 [Example 10, (2S,3S,5S)-2-(N-(N-((2-(N,N-Dimethylamino)-4-thiazolyl)methoxycarbonyl)valinyl)amino)-5-(N-((5-thiazolyl)methoxycarbonyl)amino)-1,6-diphenyl-3-hydroxyhexane] | 54 to 71 nM
7 | CC(C)[C@H](NC(=O)OCc1csc(N2CCOCC2)n1)C(=O)N[C@@H](Cc1ccccc1)C[C@H](O)[C@H](Cc1ccccc1)NC(=O)OCc1cncs1 [Example 11, (2S,3S,5S)-5-(N-(N-((2-(4-Morpholinyl)-4-thiazolyl)methoxycarbonyl)valinyl)amino)-2-(N-((5-thiazolyl)methoxycarbonyl)amino)-1,6-diphenyl-3-hydroxyhexane] | 17 to 132 nM
8 | CC(C)[C@H](NC(=O)OCc1csc(N2CCOCC2)n1)C(=O)N[C@@H](Cc1ccccc1)[C@@H](O)C[C@H](Cc1ccccc1)NC(=O)OCc1cncs1 [Example 12, (2S,3S,5S)-2-(N-(N-((2-(4-Morpholinyl)-4-thiazolyl)-methoxycarbonyl)valinyl)amino)-5-(N-((5-thiazolyl)-methoxycarbonyl)amino)-1,6-diphenyl-3-hydroxyhexane] | 53 to 106 nM
9 | CC(C)c1nc(CN(C(=O)N[C@@H](C)C(=O)N[C@@H](Cc2ccccc2)C[C@H](O)[C@H](Cc2ccccc2)NC(=O)OCc2cncs2)C2CC2)cs1 [Example 15, (2S,3S,5S)-5-(N-(N-((N-Cyclopropyl-N-((2-isopropyl-4-thiazolyl)methyl)amino)carbonyl)alaninyl)amino)-2-(N-((5-thiazolyl)methoxycarbonyl)amino)-1,6-diphenyl-3-hydroxyhexane] | 430 to 670 nM
10 | CC(C)c1nc(CN(C(=O)N[C@H](C(=O)N[C@@H](Cc2ccccc2)C[C@H](O)[C@H](Cc2ccccc2)NC(=O)OCc2cncs2)C(C)C)C2CC2)cs1 [Example 17, (2S,3S,5S)-5-(N-(N-((N-Cyclopropyl-N-((2-isopropyl-4-thiazolyl)methyl)amino)carbonyl)valinyl)amino)-2-(N-((5-thiazolyl)methoxycarbonyl)amino)-1,6-diphenyl-3-hydroxyhexane] | 230 to 310 nM
11 | CC(C)c1nc(CN(C)C(=O)N[C@H](C(=O)N[C@@H](Cc2ccccc2)C[C@H](O)[C@H](Cc2ccccc2)NC(=O)OCc2cncs2)C(C)C)co1 [Example 18, (2S,3S,5S)-5-(N-(N-((N-Methyl-N-((2-isopropyl-4-oxazolyl)methyl)amino)carbonyl)valinyl)amino)-2-(N-((5-thiazolyl)methoxycarbonyl)amino)-1,6-diphenyl-3-hydroxyhexane] | 39 to 46 nM
12 | CC(C)c1nc(CN(C)C(=O)N[C@H](C(=O)N[C@@H](Cc2ccccc2)C[C@H](O)[C@H](Cc2ccccc2)NC(=O)OCc2ccno2)C(C)C)cs1 [Example 26, (2S,3S,5S)-5-(N-(N-((N-Methyl-N-((2-isopropyl-4-thiazolyl)methyl)amino)carbonyl)valinyl)amino)-2-(N-((5-isoxazolyl)methoxycarbonyl)amino)-1,6-diphenyl-3-hydroxyhexane] | 7 to 11 nM
13 | CC(C)c1nc(CN(C)C(=O)N[C@H](C(=O)N[C@@H](Cc2ccccc2)C[C@H](O)[C@H](Cc2ccccc2)NC(=O)OCc2ccno2)C(C)C)co1 [Example 27, (2S,3S,5S)-5-(N-(N-((N-Methyl-N-((2-isopropyl-4-oxazolyl)methyl)amino)carbonyl)valinyl)amino)-2-(N-((5-isoxazolyl)methoxycarbonyl)amino)-1,6-diphenyl-3-hydroxyhexane] | 11 to 12 nM
14 | Cc1ncc(COC(=O)N[C@@H](Cc2ccccc2)[C@@H](O)C[C@H](Cc2ccccc2)NC(=O)[C@@H](NC(=O)N(C)Cc2csc(C(C)C)n2)C(C)C)s1 [Example 28, (2S,3S,5S)-5-(N-(N-((N-Methyl-N-((2-isopropyl-4-thiazolyl)methyl)amino)carbonyl)valinyl)amino)-2-(N-((2-methyl-5-thiazolyl)methoxycarbonyl)amino)-1,6-diphenyl-3-hydroxyhexane] | 110 to 120 nM
15 | Cc1ncc(COC(=O)N[C@@H](Cc2ccccc2)C[C@H](O)[C@H](Cc2ccccc2)NC(=O)[C@@H](NC(=O)N(C)Cc2csc(C(C)C)n2)C(C)C)s1 [Example 39, (2S,3S,5S)-2-(N-(N-((N-Methyl-N-((2-isopropyl-4-thiazolyl)methyl)amino)carbonyl)valinyl)amino)-5-(N-((2-methyl-5-thiazolyl)methoxycarbonyl)amino)-1,6-diphenyl-3-hydroxyhexane] | 73 to 77 nM
16 | CCc1nc(CN(C)C(=O)N[C@H](C(=O)N[C@@H](Cc2ccccc2)C[C@H](O)[C@H](Cc2ccccc2)NC(=O)OCc2cncs2)C(C)C)co1 [Example 41, (2S,3S,5S)-5-(N-(N-((N-Methyl-N-((2-ethyl-4-oxazolyl)methyl)amino)carbonyl)valinyl)amino)-2-(N-((5-thiazolyl)methoxycarbonyl)amino)-1,6-diphenyl-3-hydroxyhexane] | 15 to 20 nM
17 | Cc1nc(CN(C)C(=O)N[C@H](C(=O)N[C@@H](Cc2ccccc2)C[C@H](O)[C@H](Cc2ccccc2)NC(=O)OCc2cncs2)C(C)C)co1 [Example 42, (2S,3S,5S)-5-(N-(N-((N-Methyl-N-((2-methyl-4-oxazolyl)methyl)amino)carbonyl)valinyl)amino)-2-(N-((5-thiazolyl)methoxycarbonyl)amino)-1,6-diphenyl-3-hydroxyhexane] | 73 to 80 nM
18 | CCC(CC)c1nc(CN(C)C(=O)N[C@H](C(=O)N[C@@H](Cc2ccccc2)C[C@H](O)[C@H](Cc2ccccc2)NC(=O)OCc2cncs2)C(C)C)cs1 [Example 44, (2S,3S,5S)-5-(N-(N-((N-Methyl-N-((2-(3-pentyl)-4-thiazolyl)methyl)amino)carbonyl)valinyl)amino)-2-(N-((5-thiazolyl)methoxycarbonyl)amino)-1,6-diphenyl-3-hydroxyhexane] | 120 to 160 nM
19 | CC(C)c1nc(CCOC(=O)N[C@H](C(=O)N[C@@H](Cc2ccccc2)C[C@H](O)[C@H](Cc2ccccc2)NC(=O)OCc2cncs2)C(C)C)cs1 [Example 47, (2S,3S,5S)-5-(N-(N-((2-(2-Isopropyl-4-thiazolyl)ethoxy)carbonyl)valinyl)amino)-2-(N-((5-thiazolyl)methoxycarbonyl)amino)-1,6-diphenyl-3-hydroxyhexane] | 9 to 24 nM
20 | CC(C)[C@H](NC(=O)N(C)Cc1csc(C2CCC2)n1)C(=O)N[C@@H](Cc1ccccc1)C[C@H](O)[C@H](Cc1ccccc1)NC(=O)OCc1cncs1 [Example 52, (2S,3S,5S)-5-(N-(N-((N-Methyl-N-((2-cyclobutyl-4-thiazolyl)methyl)amino)carbonyl)valinyl)amino)-2-(N-((5-thiazolyl)methoxycarbonyl)amino)-1,6-diphenyl-3-hydroxyhexane] | 35 to 42 nM
21 | CCc1nc(CN(C)C(=O)N[C@H](C(=O)N[C@@H](Cc2ccccc2)C[C@H](O)[C@H](Cc2ccccc2)NC(=O)OCc2cncs2)C(C)C)cs1 [Example 53, (2S,3S,5S)-5-(N-(N-((N-Methyl-N-((2-ethyl-4-thiazolyl)methyl)amino)carbonyl)valinyl)amino)-2-(N-((5-thiazolyl)methoxycarbonyl)amino)-1,6-diphenyl-3-hydroxyhexane] | 32 to 73 nM

same assay, conditions: concentration giving 50% inhibition of the cytopathic effect of HIV; HIV-13B in MT4 cells; read-out: IC50

Row | Structure (SMILES) | IC50
22 | CC(C)c1nc(CN(C)C(=O)N[C@@H](C)C(=O)N[C@@H](Cc2ccccc2)C[C@H](O)[C@H](Cc2ccccc2)NC(=O)OCc2cncs2)cs1 [Example 3, (2S.3S.5S)-5-(N-(N-((N-Methyl-N-((2-isopropyl-4-thiazolyl)methyl)amino)carbonyl)alaninyl)amino)-2-(N-((5-thiazolyl)methoxycarbonyl)amino)-1,6-diphenyl-3-hydroxyhexane] | 41 to 75 nM
23 | CC(C)c1nc(CN(C)C(=O)N[C@H](C(=O)N[C@@H](Cc2ccccc2)C[C@H](O)[C@H](Cc2ccccc2)NC(=O)OCc2cnco2)C(C)C)cs1 [Example 20] | 11 to 14 nM
24 | CC(C)[C@H](NC(=O)N(C)Cc1csc(C2CC2)n1)C(=O)N[C@@H](Cc1ccccc1)C[C@H](O)[C@H](Cc1ccccc1)NC(=O)OCc1cncs1 [Example 51] | 45 to 49 nM
